According to patent US12312347B2, “Azaindole derivative and use thereof as FGFR and C-Met inhibitor” (Wuxi Life Fountain Biotech Co., Ltd, priority 2018, dated 2025):
Where a name gives a salt, the structure may show the parent alone.

Each molecule was assayed against T1, human FGFR1 (Homo sapiens, UniProt P11362) (assay: 33P isotope-labeled kinase activity test, FGFR1). Conditions: ATP 5 μM.
T1 construct: purchased Invitrogen PV3146
T1 sequence (P11362 22-822): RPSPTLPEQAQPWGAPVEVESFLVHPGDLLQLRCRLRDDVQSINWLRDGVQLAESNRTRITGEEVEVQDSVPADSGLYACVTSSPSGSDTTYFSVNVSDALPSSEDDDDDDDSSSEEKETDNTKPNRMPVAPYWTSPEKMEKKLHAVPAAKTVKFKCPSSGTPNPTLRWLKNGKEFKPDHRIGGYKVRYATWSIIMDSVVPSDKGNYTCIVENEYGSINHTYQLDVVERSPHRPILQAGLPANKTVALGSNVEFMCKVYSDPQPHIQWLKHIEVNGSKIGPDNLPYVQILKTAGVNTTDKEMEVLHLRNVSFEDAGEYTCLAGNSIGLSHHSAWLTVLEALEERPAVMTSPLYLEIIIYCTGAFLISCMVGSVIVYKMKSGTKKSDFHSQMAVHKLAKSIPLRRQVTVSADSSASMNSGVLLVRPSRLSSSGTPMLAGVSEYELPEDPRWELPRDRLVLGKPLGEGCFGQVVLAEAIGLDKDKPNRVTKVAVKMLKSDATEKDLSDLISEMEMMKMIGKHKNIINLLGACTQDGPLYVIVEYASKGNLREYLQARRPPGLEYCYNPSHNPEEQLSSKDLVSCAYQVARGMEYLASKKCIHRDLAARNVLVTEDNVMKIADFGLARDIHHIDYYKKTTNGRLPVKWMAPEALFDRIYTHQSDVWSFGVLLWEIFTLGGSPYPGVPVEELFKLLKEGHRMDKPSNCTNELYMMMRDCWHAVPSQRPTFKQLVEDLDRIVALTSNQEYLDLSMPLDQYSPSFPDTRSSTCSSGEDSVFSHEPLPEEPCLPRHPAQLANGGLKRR
Assay type: biochemical
Procedure: (§1) The inhibitory activities of the tested compounds on human FGFR1, FGFR4, and c-Met were evaluated by the IC50 values measured using ^33P isotope-labeled kinase activity test (Reaction Biology Corp).
(§2) Buffer condition: 20 mM Hepes (pH 7.5), 10 mM MgCl2, 1 mM EGTA, 0.02% Brij35, 0.02 mg/mL BSA, 0.1 mM Na3VO4, 2 mM DTT, 1% DMSO.
Test procedure: The test compounds were dissolved in DMSO at room temperature and formulated to be 10 mM solutions for later use. The substrates were dissolved in freshly prepared buffer, and kinases to be tested were added and mixed well. The test compounds dissolved in DMSO were added to the above mixed reaction solutions by acoustic technique (Echo 550). […] After incubation for 15 min, ^33P-ATP (activity 0.01 μCi/μL, corresponding concentrations are listed in Table 1) was added to start the reaction. Supplier item number, batch number, as well as the concentration information in the reaction solution of FGFR1, FGFR4, c-Met and substrates thereof are listed in Table 1. […] The kinase activity data are expressed by comparison between the kinase activity in the test compound group and the kinase activity in the blank group (containing DMSO only). IC50 values were obtained by curve fitting with Prism4 software (GraphPad).
In the case of `COc1cc(OC)c(F)c(Cc2c[nH]c3ncc(-c4c(C)nn(CCO)c4C)cc23)c1F` [Hydrochloride of embodiment 34], the IC50 is reported as 8.9 nM. Work on `COc1cc(OC)c(F)c(Cc2c[nH]c3ncc(-c4ccc5c(c4)NC(=O)C54CCN(C)CC4)cc23)c1F` [Trifluoroacetate salt of embodiment 56] yielded an IC50 of 1.9 nM. `COc1cc(OC)c(F)c(Cc2c[nH]c3ncc(-c4cnn(CCO)c4)cc23)c1F` [Hydrochloride of embodiment 46] gave an IC50 of 0.42 nM. `CCN1CCC(n2ncc(-c3cnc4[nH]cc(Cc5c(F)c(OC)cc(OC)c5F)c4c3)c2Cl)CC1` [Hydrochloride of embodiment 40] gave an IC50 of 0.4 nM. Molecule `COc1cc(OC)c(F)c(Cc2c[nH]c3ncc(-c4cncc(C5=CCNCC5)n4)cc23)c1F` [Hydrochloride of embodiment 63] has an IC50 of 9.41 nM. With `COc1cc(OC)c(F)c(Cc2c[nH]c3ncc(-c4ccc5c(c4)NC(=O)C54CCNCC4)cc23)c1F` [Trifluoroacetate salt of embodiment 54] the IC50 was 2.7 nM. In the case of `COc1cc(OC)c(F)c(Cc2c[nH]c3ncc(-c4cnn(C5CCN(CCO)CC5)c4)cc23)c1F` [Embodiment 16], the IC50 is reported as 0.73 nM. Work on `COc1cc(Cc2c[nH]c3ncc(-c4cnn(C5CCNCC5)c4)cc23)cc(OC)c1` [Trifluoroacetate salt of embodiment 11] yielded an IC50 of 17.1 nM.

What follows are molecules tested against T2, human FGFR4 (Homo sapiens, UniProt P22455) (assay: 33P isotope-labeled kinase activity test, FGFR4). Conditions: ATP 100 μM.
T2 construct: purchased Invitrogen P3054
T2 sequence (P22455 22-802): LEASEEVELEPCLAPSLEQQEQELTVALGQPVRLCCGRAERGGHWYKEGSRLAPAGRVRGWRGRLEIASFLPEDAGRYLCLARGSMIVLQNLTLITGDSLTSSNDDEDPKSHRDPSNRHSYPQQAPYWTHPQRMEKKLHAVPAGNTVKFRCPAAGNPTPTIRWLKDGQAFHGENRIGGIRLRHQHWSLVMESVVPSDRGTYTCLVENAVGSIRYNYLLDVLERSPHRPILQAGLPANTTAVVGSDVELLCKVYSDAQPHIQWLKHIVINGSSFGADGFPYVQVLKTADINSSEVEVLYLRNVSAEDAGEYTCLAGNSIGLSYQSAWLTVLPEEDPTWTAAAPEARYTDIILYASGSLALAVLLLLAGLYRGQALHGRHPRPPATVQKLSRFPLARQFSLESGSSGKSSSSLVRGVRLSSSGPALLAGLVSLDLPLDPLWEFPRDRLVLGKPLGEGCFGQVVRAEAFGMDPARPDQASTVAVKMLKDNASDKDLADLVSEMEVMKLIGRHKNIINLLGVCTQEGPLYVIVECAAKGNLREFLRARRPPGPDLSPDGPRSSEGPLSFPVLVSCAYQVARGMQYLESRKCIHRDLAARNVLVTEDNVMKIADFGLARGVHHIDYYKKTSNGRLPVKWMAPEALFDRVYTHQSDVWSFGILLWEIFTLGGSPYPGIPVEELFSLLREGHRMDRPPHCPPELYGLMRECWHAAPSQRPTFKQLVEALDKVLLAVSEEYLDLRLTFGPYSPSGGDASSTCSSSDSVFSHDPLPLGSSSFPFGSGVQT
Assay type: biochemical
Procedure: as §1, §2
(§3) Test procedure: The test compounds were dissolved in DMSO at room temperature and formulated to be 10 mM solutions for later use. The substrates were dissolved in freshly prepared buffer, and kinases to be tested were added and mixed well. The test compounds dissolved in DMSO were added to the above mixed reaction solutions by acoustic technique (Echo 550). The concentration of the compound in reaction solution was 1 μM, […], 3.91 nM, 0.977 nM, 0.244 nM, 0.061 nM, 0.0153 nM, 0.00381 nM or 10 μM, 2.50 μM, 0.62 μM, 0.156 μM, 39.1 nM, 9.8 nM, 2.4 nM, 0.61 nM, 0.15 nM, 0.038 nM. After incubation for 15 min, ^33P-ATP (activity 0.01 μCi/μL, corresponding concentrations are listed in Table 1) was added to start the reaction. Supplier item number, batch number, as well as the concentration information in the reaction solution of FGFR1, FGFR4, c-Met and substrates thereof are listed in Table 1. […] The kinase activity data are expressed by comparison between the kinase activity in the test compound group and the kinase activity in the blank group (containing DMSO only). IC50 values were obtained by curve fitting with Prism4 software (GraphPad).
For `COc1cc(OC)c(F)c(Cc2c[nH]c3ncc(-c4cn(C5CCN(C)CC5)nc4C)cc23)c1F` [Trifluoroacetate salt of embodiment 35], the IC50 was 23.5 nM. For `COc1cc(OC)c(F)c(Cc2c[nH]c3ncc(-c4c(C)nn(CCO)c4C)cc23)c1F` [Hydrochloride of embodiment 34], the IC50 was 126 nM. In the case of `COc1cc(OC)c(F)c(Cc2c[nH]c3ncc(-c4ccc(N5CCN(C)CC5)nc4)cc23)c1F` [Trifluoroacetate salt of embodiment 62], the IC50 is reported as 8.6 nM. `COc1cc(OC)c(Cl)c(Cc2c[nH]c3ncc(-c4cnn(C5CCNCC5)c4)cc23)c1Cl` [Trifluoroacetate salt of embodiment 49] showed an IC50 of 529 nM. `COc1cc(OC)c(F)c(Cc2c[nH]c3ncc(-c4cnn(C5CCOCC5)c4)cc23)c1F` [Trifluoroacetate salt of embodiment 22] showed an IC50 of 29.2 nM. Molecule `COc1cc(OC)c(F)c(Cc2c[nH]c3ncc(-c4cnn(C5CCN(C(C)=O)CC5)c4)cc23)c1F` [Trifluoroacetate salt of embodiment 17] has an IC50 of 7.5 nM. Molecule `CNC(=O)c1cc(Cc2c[nH]c3ncc(-c4cnn(C5CCNCC5)c4)cc23)c(Cl)c(OC)c1` [Trifluoroacetate salt of embodiment 20] has an IC50 of 158 nM. `CC(c1c(Cl)ccc(F)c1Cl)c1c[nH]c2ncc(-c3cnn(CCO)c3)cc12` (centres unmarked) [Comparative Compound 1b, reference compound] gave an IC50 of 5090 nM. `COc1cc(OC)c(F)c(Cc2c[nH]c3ncc(-c4ccc5c(c4)NC(=O)C54CCN(C)CC4)cc23)c1F` [Trifluoroacetate salt of embodiment 56] gave an IC50 of 53.2 nM. Molecule `COc1cc(OC)c(F)c(Cc2c[nH]c3ncc(-c4cnn(CCO)c4)cc23)c1F` [Hydrochloride of embodiment 46] has an IC50 of 2.9 nM. In the case of `COc1cc(OC)c(F)c(Cc2c[nH]c3ncc(-c4cnn(C5CNC5)c4)cc23)c1F` [Trifluoroacetate salt of embodiment 24], the IC50 is reported as 252 nM. For `CC(c1c(Cl)ccc(F)c1Cl)c1c[nH]c2ncc(-c3cnn(CCO)c3)cc12` (single isomer, unassigned) [Comparative Compound 1a, reference compound], the IC50 was over 10000 nM. For `COc1cc(OC)c(F)c(Cc2c[nH]c3ncc(-c4ccnc(N5CCN(C)CC5)c4)cc23)c1F` [Embodiment 78], the IC50 was 9.8 nM. For `CCN1CCC(n2ncc(-c3cnc4[nH]cc(Cc5c(F)c(OC)cc(OC)c5F)c4c3)c2Cl)CC1` [Hydrochloride of embodiment 40], the IC50 was 21.5 nM. `COc1cc(OC)c(F)c(Cc2c[nH]c3ncc(-c4ccc5c(c4)NC(=O)C54CCNCC4)cc23)c1F` [Trifluoroacetate salt of embodiment 54] showed an IC50 of 58.5 nM. `COc1cc(OC)c(F)c(Cc2c[nH]c3ncc(-c4cnn(C5CCN(CCO)CC5)c4)cc23)c1F` [Embodiment 16] was tested, and the IC50 was 16.1 nM. `COc1ccc(Cl)c(Cc2c[nH]c3ncc(-c4cnn(C5CCNCC5)c4)cc23)c1Cl` [Trifluoroacetate salt of embodiment 10] gave an IC50 of 1710 nM. `COc1cc(OC)c(F)c(Cc2c[nH]c3ncc(-c4cnn(CCNC(C)C)c4)cc23)c1F` [Hydrochloride of embodiment 68] gave an IC50 of 10 nM. `CCN1CCC(n2cc(-c3cnc4[nH]nc(Cc5c(F)ccc(OC)c5F)c4c3)cn2)CC1` [Hydrochloride of embodiment 4] was tested, and the IC50 was 799 nM. `COc1cc(Cc2c[nH]c3ncc(-c4cnn(C5CCNCC5)c4)cc23)cc(OC)c1` [Trifluoroacetate salt of embodiment 11] gave an IC50 of 550 nM.

What follows are molecules tested against T3, human c-Met (Homo sapiens, UniProt P08581) (assay: 33P isotope-labeled kinase activity test, c-Met). Conditions: ATP 10 μM.
T3 construct: purchased Invitrogen PV3143
T3 sequence (P08581 25-1390): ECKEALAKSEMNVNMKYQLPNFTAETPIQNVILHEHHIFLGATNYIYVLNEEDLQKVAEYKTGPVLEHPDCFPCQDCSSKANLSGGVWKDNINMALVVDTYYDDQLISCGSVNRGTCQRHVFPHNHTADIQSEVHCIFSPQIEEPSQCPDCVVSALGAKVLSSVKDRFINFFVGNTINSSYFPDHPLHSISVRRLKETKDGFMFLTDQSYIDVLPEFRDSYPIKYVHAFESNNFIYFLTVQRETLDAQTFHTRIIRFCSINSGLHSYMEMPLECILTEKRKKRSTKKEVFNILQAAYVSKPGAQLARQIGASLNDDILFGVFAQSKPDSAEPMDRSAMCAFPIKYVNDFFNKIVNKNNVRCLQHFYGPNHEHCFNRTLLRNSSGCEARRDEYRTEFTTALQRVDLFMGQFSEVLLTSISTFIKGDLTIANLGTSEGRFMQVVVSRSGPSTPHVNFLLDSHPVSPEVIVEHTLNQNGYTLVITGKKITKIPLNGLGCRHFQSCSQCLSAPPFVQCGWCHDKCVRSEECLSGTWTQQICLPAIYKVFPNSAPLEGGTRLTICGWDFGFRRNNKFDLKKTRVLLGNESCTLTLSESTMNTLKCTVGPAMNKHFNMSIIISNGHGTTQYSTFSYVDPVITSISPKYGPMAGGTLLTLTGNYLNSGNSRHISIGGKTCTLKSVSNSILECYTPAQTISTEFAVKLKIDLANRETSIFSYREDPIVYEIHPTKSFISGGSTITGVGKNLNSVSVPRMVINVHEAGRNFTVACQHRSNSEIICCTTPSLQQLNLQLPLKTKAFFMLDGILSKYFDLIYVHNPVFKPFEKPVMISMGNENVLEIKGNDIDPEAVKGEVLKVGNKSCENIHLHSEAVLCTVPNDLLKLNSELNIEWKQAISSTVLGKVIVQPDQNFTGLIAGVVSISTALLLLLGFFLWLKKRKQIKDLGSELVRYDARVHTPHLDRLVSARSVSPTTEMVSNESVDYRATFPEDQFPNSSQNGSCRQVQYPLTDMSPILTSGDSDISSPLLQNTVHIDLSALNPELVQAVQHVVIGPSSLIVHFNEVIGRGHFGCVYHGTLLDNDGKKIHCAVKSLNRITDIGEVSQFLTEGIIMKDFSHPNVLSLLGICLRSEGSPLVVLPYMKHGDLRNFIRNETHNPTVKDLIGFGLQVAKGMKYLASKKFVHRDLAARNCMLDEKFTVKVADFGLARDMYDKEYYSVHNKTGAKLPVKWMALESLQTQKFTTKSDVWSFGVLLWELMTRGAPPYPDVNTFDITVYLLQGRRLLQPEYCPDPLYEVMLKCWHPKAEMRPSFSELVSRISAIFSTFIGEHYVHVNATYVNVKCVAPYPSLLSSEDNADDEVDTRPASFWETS
Assay type: biochemical
Procedure: as §1, §2, §3
With `COc1cc(OC)c(F)c(Cc2c[nH]c3ncc(-c4cn(C5CCN(C)CC5)nc4C)cc23)c1F` [Trifluoroacetate salt of embodiment 35] the IC50 was 14 nM. With `COc1cc(OC)c(F)c(Cc2c[nH]c3ncc(-c4c(C)nn(CCO)c4C)cc23)c1F` [Hydrochloride of embodiment 34] the IC50 was 86.7 nM. With `COc1cc(OC)c(F)c(Cc2c[nH]c3ncc(-c4ccc(N5CCN(C)CC5)nc4)cc23)c1F` [Trifluoroacetate salt of embodiment 62] the IC50 was 132 nM. For `COc1cc(OC)c(Cl)c(Cc2c[nH]c3ncc(-c4cnn(C5CCNCC5)c4)cc23)c1Cl` [Trifluoroacetate salt of embodiment 49], the IC50 was 8.8 nM. `COc1cc(OC)c(F)c(Cc2c[nH]c3ncc(-c4cnn(C5CCOCC5)c4)cc23)c1F` [Trifluoroacetate salt of embodiment 22] showed an IC50 of 23.8 nM. For `COc1cc(OC)c(F)c(Cc2c[nH]c3ncc(-c4cnn(C5CCN(C(C)=O)CC5)c4)cc23)c1F` [Trifluoroacetate salt of embodiment 17], the IC50 was 11.6 nM. With `CNC(=O)c1cc(Cc2c[nH]c3ncc(-c4cnn(C5CCNCC5)c4)cc23)c(Cl)c(OC)c1` [Trifluoroacetate salt of embodiment 20] the IC50 was 12 nM. With `CC(c1c(Cl)ccc(F)c1Cl)c1c[nH]c2ncc(-c3cnn(CCO)c3)cc12` (centres unmarked) [Comparative Compound 1b, reference compound] the IC50 was 11.1 nM. `COc1cc(OC)c(F)c(Cc2c[nH]c3ncc(-c4ccc5c(c4)NC(=O)C54CCN(C)CC4)cc23)c1F` [Trifluoroacetate salt of embodiment 56] gave an IC50 of 7.8 nM. For `COc1cc(OC)c(F)c(Cc2c[nH]c3ncc(-c4cnn(CCO)c4)cc23)c1F` [Hydrochloride of embodiment 46], the IC50 was 8.9 nM. In the case of `COc1cc(OC)c(F)c(Cc2c[nH]c3ncc(-c4cnn(C5CNC5)c4)cc23)c1F` [Trifluoroacetate salt of embodiment 24], the IC50 is reported as 76.5 nM. `CC(c1c(Cl)ccc(F)c1Cl)c1c[nH]c2ncc(-c3cnn(CCO)c3)cc12` (single isomer, unassigned) [Comparative Compound 1a, reference compound] showed an IC50 of 758 nM. For `COc1cc(OC)c(F)c(Cc2c[nH]c3ncc(-c4ccnc(N5CCN(C)CC5)c4)cc23)c1F` [Embodiment 78], the IC50 was 141 nM. With `CCN1CCC(n2ncc(-c3cnc4[nH]cc(Cc5c(F)c(OC)cc(OC)c5F)c4c3)c2Cl)CC1` [Hydrochloride of embodiment 40] the IC50 was 14.6 nM. Molecule `COc1cc(OC)c(F)c(Cc2c[nH]c3ncc(-c4ccc5c(c4)NC(=O)C54CCNCC4)cc23)c1F` [Trifluoroacetate salt of embodiment 54] has an IC50 of 16.5 nM. `COc1cc(OC)c(F)c(Cc2c[nH]c3ncc(-c4cnn(C5CCN(CCO)CC5)c4)cc23)c1F` [Embodiment 16] was tested, and the IC50 was 10.5 nM. `COc1ccc(Cl)c(Cc2c[nH]c3ncc(-c4cnn(C5CCNCC5)c4)cc23)c1Cl` [Trifluoroacetate salt of embodiment 10] showed an IC50 of 8.7 nM. `COc1cc(OC)c(F)c(Cc2c[nH]c3ncc(-c4cnn(CCNC(C)C)c4)cc23)c1F` [Hydrochloride of embodiment 68] was tested, and the IC50 was 53.5 nM. Work on `CCN1CCC(n2cc(-c3cnc4[nH]nc(Cc5c(F)ccc(OC)c5F)c4c3)cn2)CC1` [Hydrochloride of embodiment 4] yielded an IC50 of 177 nM.
